“And” between values parts separate entries of the source, which are not always exact repeats. Equal values may be shown once. Marks after values point to notes of the source that are not given here.
Columns and labels:
TR146 cells = test: In vitro permeation, buccal model; format: in vitro ADME, human
Experimental: The in vitro permeability of the bioactive compounds present in OFs (n = 9) was determined using a co-culture model composed of TR146 ([31]). The extract and the CS-loaded OFs were added to the apical side of the model as a stock solution. […] The Transepithelial Electrical Resistance (TEER) of the model was evaluated before, during, and at the end of the permeability assay using an EVOM Epithelial Volthometer equipped with a chopstick electrode (World Precision Instruments, Sarasota, FL, USA).
(§1) The identification and quantification of the phenolic compounds present in the extract and the OFs, as well as the compounds that permeated from the OFs through in vitro and ex vivo assays, were conducted using an LC-ESI-LTQ-Orbitrap-HRMS equipment with an Accela chromatograph (Thermo Scientific, Hemel Hempstead, UK), a photodiode array detector, a quaternary pump, and a temperature-controlled autosampler coupled to a high-resolution LTQ Orbitrap Velos mass spectrometer (Thermo Scientific, Hemel Hempstead, UK) with an ESI source in negative mode ([33], [34]). The system was controlled using the Xcalibur v3.0 software (ThermoFisher Scientific, Hemel Hempstead, UK). Elution was performed on an Acquity™ UPLC® BEH C18 Column (2.1 × 100 mm, i.d., 1.7 µm particle size, Waters Corporation, Wexford, Ireland) maintained at 30°C.
(§2) Gradient elution was performed with water (A) and acetonitrile (B), both with 0.1% formic acid, with a flow rate and injection volume of 450 µl/min and 5 µl, respectively. The solvent gradient (v/v) of B [t (min), %B] was set as follows: (0, 0), (2, 0), (4, 30), (8, 100), (10, 100), (11, 0), and (14, 0). The samples were analyzed in the full scan mode at a resolving power of 30,000 and m/z 600. Data-dependent MS/MS events were acquired at a resolution of 15,000. Most intense ions were detected via the FTMS mode-triggered data-dependent acquisition mode. Ions that were not sufficiently intense for a data-dependent scan were explored in MSn mode. Precursors were fragmented by collision-induced dissociation using a C-trap with a normalized collision energy (35 V) and an activation time of 10 ms. […] Compounds whose theoretical [M–H]^− values exceeded the MS¹ acquisition range (m/z 100–600) were annotated based on characteristic MSⁿ fragment ions detected within the scan window.

[1] = Ex vivo permeation, Franz cells; format: in vitro ADME, porcine
Experimental: Porcine buccal mucosa was used to evaluate the buccal permeation of the phenolic compounds in the extract and the CS-loaded OFs (n = 9). The porcine buccal mucosa was purchased in a local butcher shop, not requiring ethical approval. A Franz cell assembly (9 mm clear jacketed Franz cell with a flat ground joint, 5 ml receptor volume, and permeation area of 0.785 cm^2; PermeGear, Inc., USA) was used. This experiment followed the methodology described by Rodrigues et al. ([32]). In the Franz apparatus, the porcine buccal mucosa was positioned with the cheek side facing the donor chamber, which contained 500 µl (1,000 μg/ml) of the CS extract or the CS-loaded OFs (two square films (2 × 2 cm) with […] of thickness were dissolved in 4 ml of artificial saliva; donor concentration was normalized to ensure equivalence between the extract solution and the film formulation). The receptor chamber was filled with 5 ml PBS, maintained at 37°C, and stirred continuously at 150 rpm. The volume was maintained through the experiments.
as §1, §2
Quantitative analysis was performed by using a validated chromatographic method ([38]).

Compound	Quantification of permeated compounds (TR146 cells; CS extract)	Quantification of permeated compounds (TR146 cells; CS-loaded OFs)	Permeation (%) (TR146 cells; from CS extract, 15 min)	Quantification of permeated compounds ([1]; CS extract)	Quantification of permeated compounds ([1]; CS-loaded OFs)	Permeation (%) ([1]; from CS extract, 15 min)	Permeation (%) ([1]; from CS extract, 30 min)	Permeation (%) (TR146 cells; from CS extract, 30 min)	Permeation (%) (TR146 cells; from CS extract, 45 min)	Permeation (%) (TR146 cells; from CS extract, 60 min)	Permeation (%) (TR146 cells; from CS extract, 90 min)	Permeation (%) (TR146 cells; from CS extract, 120 min)	Permeation (%) (TR146 cells; from CS extract, 180 min)	Permeation (%) (TR146 cells; from CS extract, 240 min)	further results
COC(=O)c1cc(O)c(O)c(O)c1 [Methyl gallate]	0.37 ± 0.01^a mg/ml	0.37 ± 0.03^a mg/g film	37.24 ± 0.04^a %	–	–	–	–	–	–	–	–	–	–	–	–
O[C@H]1[C@H](O)[C@@H](O)[C@H](O)[C@@H](O)[C@H]1O [Myo-Inositol]	0.54 ± 0.01^a mg/ml	0.42 ± 0.01^a mg/g film	39.51 ± 0.87^a^,^b %	–	–	–	–	79.23 ± 1.43c %	12.98 ± 0.01^a %	33.80 ± 0.08^a^,^b %	30.46 ± 0.05^a^,^b %	41.34 ± 1.01^a^,^b %	25.02 ± 0.09^a^,^b %	56.50 ± 0.37^c %	–
N[C@@H](Cc1ccccc1)C(=O)O [L-Phenylalanine]	–	–	–	5.52 ± 0.24^b mg/ml	0.42 ± 0.01^a mg/g film	8.67 ± 0.03^a %	8.57 ± 1.47^a %	–	–	–	–	–	–	–	–
COc1cc(C=O)ccc1O [Vanillin]	0.70 ± 0.02^a mg/ml	0.44 ± 0.05^a mg/g film	8.10 ± 0.02^a %	–	–	–	–	23.12 ± 0.56^b %	28.35 ± 0.83^b %	28.43 ± 0.41^b %	42.18 ± 1.08^c %	27.71 ± 0.72^a %	53.91 ± 1.07^d %	52.90 ± 0.73^d %	–

The next lines start with results.

Quantification of permeated compounds (TR146 cells; CS extract)	Quantification of permeated compounds (TR146 cells; CS-loaded OFs)	Permeation (%) (TR146 cells; from CS extract, 15 min)	Quantification of permeated compounds ([1]; CS extract)	Quantification of permeated compounds ([1]; CS-loaded OFs)	Permeation (%) ([1]; from CS extract, 15 min)	Permeation (%) ([1]; from CS extract, 30 min)	Permeation (%) (TR146 cells; from CS extract, 30 min)	Permeation (%) (TR146 cells; from CS extract, 45 min)	Permeation (%) (TR146 cells; from CS extract, 60 min)	Permeation (%) (TR146 cells; from CS extract, 90 min)	Permeation (%) (TR146 cells; from CS extract, 120 min)	Permeation (%) (TR146 cells; from CS extract, 180 min)	Permeation (%) (TR146 cells; from CS extract, 240 min)	Compound	further results
–	–	–	26.17 ± 2.25^a mg/ml	30.41 ± 0.01^a mg/g film	65.10 ± 1.87^a %	67.06 ± 2.58^a %	–	–	–	–	–	–	–	O=C(O)CCCCCC(=O)O [Pimelic acid]	Permeation (%) ([1]; from CS-loaded OFs, 15 min): 76.61 ± 4.85^a %
41.32 ± 2.63^b mg/ml	28.93 ± 1.88^a mg/g film	13.92 ± 0.12^a %	–	–	–	–	15.39 ± 1.05^a %	18.22 ± 1.41^b %	23.34 ± 0.88^b %	22.87 ± 1.52^b %	23.68 ± 1.84^b %	21.35 ± 0.97^b %	28.47 ± 2.52^b %	O=C1CC[C@@H](C(=O)O)N1 [Pyroglutamic acid]	Permeation (%) (TR146 cells; from CS-loaded OFs, 15 min): 17.03 ± 0.23^a %; Permeation (%) (TR146 cells; from CS-loaded OFs, 30 min): 39.63 ± 0.24^a^,^b %; Permeation (%) (TR146 cells; from CS-loaded OFs, 45 min): 43.32 ± 1.12^a^,^b %; Permeation (%) (TR146 cells; from CS-loaded OFs, 60 min): 46.32 ± 2.65^a^,^b %; Permeation (%) (TR146 cells; from CS-loaded OFs, 90 min): 65.40 ± 0.82^b %; Permeation (%) (TR146 cells; from CS-loaded OFs, 120 min): 66.95 ± 3.71^b %; Permeation (%) (TR146 cells; from CS-loaded OFs, 180 min): 103.24 ± 2.71^c %; Permeation (%) (TR146 cells; from CS-loaded OFs, 240 min): 111.34% and 111.34 ± 1.62^c %
–	–	–	1.02 ± 0.02^b mg/ml	0.39 ± 0.01^a mg/g film	29.36 ± 1.68^a %	28.33 ± 1.16^a %	–	–	–	–	–	–	–	O=C(O)[C@]1(O)C[C@@H](O)[C@@H](O)[C@H](O)C1 [Quinic acid]	Permeation (%) ([1]; from CS-loaded OFs, 15 min): 70.71 ± 1.52^b %; Permeation (%) ([1]; from CS-loaded OFs, 30 min): 74.31 ± 1.78^b %
–	–	–	23.93 ± 1.12^a mg/ml	23.67 ± 5.00^a mg/g film	85.64 ± 4.12^a %	86.86 ± 3.52^a %	–	–	–	–	–	–	–	O=C(O)CCCCCCCCCC(=O)O [Undecanedioic acid]	–

From article PMC12488667, “Orodispersible films containing chestnut shell phenolics for buccal delivery: a preclinical approach for oral mucositis prevention” (Frontiers in Medical Technology, 2025)
